In data set [1] the target is T1, Neuronal acetylcholine receptor; alpha4/beta2 (Homo sapiens) (UniProt P17787+P43681). Description: Antagonist activity at human alpha4beta2 nAChR expressed in Xenopus laevis oocytes assessed as inhibition of ACh-induced current amplitude at -80 mV holding potential at 1 uM by two-electrode voltage clamp method. Type of data set: cell-based. The note with it: Oocyte, filed as antagonist. (Two-electrode voltage clamp is typically applied to oocytes expressing channels or transporters.)

For data set [2], the target named is T2, Neuronal acetylcholine receptor; alpha3/beta2 (Homo sapiens, UniProt P17787+P32297). Description: Antagonist activity at human alpha3beta2 nAChR expressed in Xenopus laevis oocytes assessed as inhibition of ACh-induced current amplitude at -80 mV holding potential at 10 uM by two-electrode voltage clamp method. The class given is cell-based. The settings on record: Oocyte, filed as antagonist.
T2 sequence (P17787 whole entry): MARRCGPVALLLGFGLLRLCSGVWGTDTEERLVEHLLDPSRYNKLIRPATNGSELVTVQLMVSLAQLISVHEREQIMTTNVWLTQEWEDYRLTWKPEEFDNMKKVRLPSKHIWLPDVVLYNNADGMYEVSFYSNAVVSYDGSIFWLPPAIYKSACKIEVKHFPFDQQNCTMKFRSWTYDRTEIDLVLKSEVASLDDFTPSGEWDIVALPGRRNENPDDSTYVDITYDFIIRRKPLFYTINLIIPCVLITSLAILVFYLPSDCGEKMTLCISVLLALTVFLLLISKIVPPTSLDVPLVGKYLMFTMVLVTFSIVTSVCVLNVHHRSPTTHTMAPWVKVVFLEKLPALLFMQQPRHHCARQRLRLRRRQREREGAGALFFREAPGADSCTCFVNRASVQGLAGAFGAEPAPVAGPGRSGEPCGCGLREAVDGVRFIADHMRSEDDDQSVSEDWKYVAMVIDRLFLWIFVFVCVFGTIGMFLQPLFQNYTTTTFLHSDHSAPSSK
T2 sequence (P32297 whole entry): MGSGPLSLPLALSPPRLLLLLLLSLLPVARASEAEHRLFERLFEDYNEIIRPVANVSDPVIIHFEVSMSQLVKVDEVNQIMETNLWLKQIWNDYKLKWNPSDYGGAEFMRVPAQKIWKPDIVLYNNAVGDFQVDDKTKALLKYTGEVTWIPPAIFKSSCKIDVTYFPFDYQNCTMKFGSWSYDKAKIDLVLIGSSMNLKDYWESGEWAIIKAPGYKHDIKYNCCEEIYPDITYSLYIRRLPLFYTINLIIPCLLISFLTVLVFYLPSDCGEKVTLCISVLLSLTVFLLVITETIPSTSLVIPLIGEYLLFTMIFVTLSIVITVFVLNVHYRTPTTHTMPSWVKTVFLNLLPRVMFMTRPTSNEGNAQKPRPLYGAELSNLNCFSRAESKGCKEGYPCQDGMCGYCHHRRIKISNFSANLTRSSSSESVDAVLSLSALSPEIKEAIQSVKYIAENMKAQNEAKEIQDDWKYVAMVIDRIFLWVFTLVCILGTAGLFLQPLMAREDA

Data set [3] concerns the target Neuronal acetylcholine receptor subunit alpha-7 (Rattus norvegicus) (UniProt Q05941). Description: Inhibition of rat neuronal alpha7 nAChR expressed in Xenopus laevis oocytes assessed as inhibition of ACh-induced current amplitude at 1 uM by two-electrode voltage clamp method. The note with it: Oocyte, filed as antagonist. Type of data set: cell-based.
Data set [4] concerns the target T1, Neuronal acetylcholine receptor; alpha4/beta2 (Homo sapiens). The experiment in a line: Antagonist activity at human alpha4beta2 nAChR expressed in Xenopus laevis oocytes assessed as inhibition of ACh-induced current amplitude at -80 mV holding potential at 10 uM by two-electrode voltage clamp method. Type of data set: cell-based. The note with it: Oocyte, filed as antagonist.

The target in data set [5] is T3, Neuronal acetylcholine receptor subunit alpha-7 (Homo sapiens, UniProt P36544). Description: Antagonist activity at human alpha7 nAChR expressed in Xenopus laevis oocytes assessed as inhibition of ACh-induced current amplitude at -80 mV holding potential at 10 uM by two-electrode voltage clamp method. The class given is cell-based. The settings on record: Oocyte, filed as antagonist.
T3 sequence (P36544 whole entry): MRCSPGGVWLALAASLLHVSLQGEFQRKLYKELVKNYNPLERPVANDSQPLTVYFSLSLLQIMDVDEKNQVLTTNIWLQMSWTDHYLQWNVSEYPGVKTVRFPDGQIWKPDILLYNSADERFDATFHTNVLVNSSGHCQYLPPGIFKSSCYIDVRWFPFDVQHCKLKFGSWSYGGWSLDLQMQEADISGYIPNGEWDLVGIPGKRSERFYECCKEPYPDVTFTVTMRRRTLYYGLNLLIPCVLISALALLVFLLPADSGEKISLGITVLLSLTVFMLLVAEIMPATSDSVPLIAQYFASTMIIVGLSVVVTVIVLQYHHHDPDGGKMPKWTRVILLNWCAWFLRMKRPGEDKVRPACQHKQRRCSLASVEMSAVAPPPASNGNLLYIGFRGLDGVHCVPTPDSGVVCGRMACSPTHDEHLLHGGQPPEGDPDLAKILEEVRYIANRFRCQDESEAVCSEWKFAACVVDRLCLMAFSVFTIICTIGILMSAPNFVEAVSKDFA

For data set [6], the target named is T2, Neuronal acetylcholine receptor; alpha3/beta2. The experiment in a line: Antagonist activity at human alpha3beta2 nAChR expressed in Xenopus laevis oocytes assessed as inhibition of ACh-induced current amplitude at -80 mV holding potential by two-electrode voltage clamp method. Type of data set: cell-based, Oocyte.
A short description of data set [7]: Antagonist activity at rat alpha9alpha10 nAChR expressed in Xenopus laevis oocytes assessed as inhibition of ACh-induced current amplitude by two-electrode voltage clamp method. Type of data set: cell-based. The settings on record: Oocyte.
The test system of the next data set is Oocyte. Description: Antagonist activity at rat alpha9alpha10 nAChR expressed in Xenopus laevis oocytes assessed as inhibition of ACh-induced current amplitude at 10 uM by two-electrode voltage clamp method. The note with it: filed as antagonist. Type of data set: cell-based.
Data set [8] has as its target T4, Neuronal acetylcholine receptor; alpha3/beta4 (Homo sapiens) (UniProt P30926+P32297). The experiment in a line: Antagonist activity at human alpha3beta4 nAChR expressed in Xenopus laevis oocytes assessed as inhibition of ACh-induced current amplitude at -80 mV holding potential in presence of BAPTA-AM at 10 uM by two-electrode voltage clamp method. The class given is cell-based. The settings on record: Oocyte, filed as antagonist.

In data set [9] the target is T3, Neuronal acetylcholine receptor subunit alpha-7. Description: Antagonist activity at human alpha7 nAChR expressed in Xenopus laevis oocytes assessed as inhibition of ACh-induced current amplitude at -80 mV holding potential at 1 uM by two-electrode voltage clamp method. The note with it: Oocyte. The class given is cell-based.
Data set [10] addresses T5, Neuronal acetylcholine receptor; alpha9/alpha10 (Homo sapiens) (UniProt Q9UGM1+Q9GZZ6). The experiment in a line: Antagonist activity at human alpha9alpha10 nAChR expressed in Xenopus laevis oocytes assessed as inhibition of ACh-induced current amplitude at -80 mV holding potential at 10 uM by two-electrode voltage clamp method. The class given is cell-based. The note with it: Oocyte, filed as antagonist.

For data set [11], the target named is T5, Neuronal acetylcholine receptor; alpha9/alpha10 (Homo sapiens). The experiment in a line: Antagonist activity at human alpha9alpha10 nAChR expressed in Xenopus laevis oocytes assessed as inhibition of ACh-induced current amplitude at -80 mV holding potential at 1 uM by two-electrode voltage clamp method. Type of data set: cell-based. The settings on record: Oocyte, filed as antagonist.

The target of data set [12] is T4, Neuronal acetylcholine receptor; alpha3/beta4 (Homo sapiens). Description: Antagonist activity at human alpha3beta4 nAChR expressed in Xenopus laevis oocytes assessed as inhibition of ACh-induced current amplitude at -80 mV holding potential at 10 uM by two-electrode voltage clamp method. Type of data set: cell-based. The settings on record: Oocyte, filed as antagonist.

Data set [13] addresses T2, Neuronal acetylcholine receptor; alpha3/beta2. The experiment in a line: Antagonist activity at human alpha3beta2 nAChR expressed in Xenopus laevis oocytes assessed as inhibition of ACh-induced current amplitude at -80 mV holding potential at 1 uM by two-electrode voltage clamp method. The class given is cell-based. The settings on record: Oocyte.
The target of data set [14] is T4, Neuronal acetylcholine receptor; alpha3/beta4 (Homo sapiens). The experiment in a line: Antagonist activity at human alpha3beta4 nAChR expressed in Xenopus laevis oocytes assessed as inhibition of ACh-induced current amplitude at -80 mV holding potential at 1 uM by two-electrode voltage clamp method. The class given is cell-based. The note with it: Oocyte, filed as antagonist.

The target of data set [15] is Neuronal acetylcholine receptor; alpha9/alpha10 (Homo sapiens, UniProt Q9GZZ6+Q9UGM1). Description: Antagonist activity at human alpha9alpha10 nAChR expressed in Xenopus laevis oocytes assessed as inhibition of ACh-induced current amplitude at -80 mV holding potential by two-electrode voltage clamp method. The class given is cell-based, Oocyte.
Chain of Neuronal acetylcholine receptor; alpha9/alpha10 (Q9UGM1 whole entry): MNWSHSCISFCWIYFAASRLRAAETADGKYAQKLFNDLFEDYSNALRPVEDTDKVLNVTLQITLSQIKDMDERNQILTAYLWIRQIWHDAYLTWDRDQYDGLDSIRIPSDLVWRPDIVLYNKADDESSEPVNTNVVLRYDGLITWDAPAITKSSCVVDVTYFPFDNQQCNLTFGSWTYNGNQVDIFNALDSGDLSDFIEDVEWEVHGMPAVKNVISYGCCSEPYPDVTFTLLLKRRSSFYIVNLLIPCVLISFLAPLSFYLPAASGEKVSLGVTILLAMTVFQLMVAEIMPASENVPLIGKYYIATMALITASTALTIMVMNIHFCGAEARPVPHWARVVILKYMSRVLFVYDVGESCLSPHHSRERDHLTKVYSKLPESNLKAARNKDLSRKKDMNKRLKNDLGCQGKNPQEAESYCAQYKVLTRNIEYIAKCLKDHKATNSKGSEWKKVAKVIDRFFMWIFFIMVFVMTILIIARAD
Chain of Neuronal acetylcholine receptor; alpha9/alpha10 (Q9GZZ6 whole entry): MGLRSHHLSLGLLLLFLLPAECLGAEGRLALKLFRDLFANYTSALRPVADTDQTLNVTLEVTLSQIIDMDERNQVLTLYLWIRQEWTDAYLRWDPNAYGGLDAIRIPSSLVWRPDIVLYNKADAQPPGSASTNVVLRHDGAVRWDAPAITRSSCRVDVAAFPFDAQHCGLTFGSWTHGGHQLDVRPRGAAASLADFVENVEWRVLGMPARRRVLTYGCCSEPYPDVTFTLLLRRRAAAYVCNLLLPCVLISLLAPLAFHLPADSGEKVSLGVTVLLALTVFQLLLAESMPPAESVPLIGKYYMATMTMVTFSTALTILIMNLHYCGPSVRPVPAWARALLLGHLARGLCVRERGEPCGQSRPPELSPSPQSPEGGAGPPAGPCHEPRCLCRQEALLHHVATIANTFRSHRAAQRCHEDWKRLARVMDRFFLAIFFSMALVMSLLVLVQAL
Data set [16] addresses T2, Neuronal acetylcholine receptor; alpha3/beta2. Description: Antagonist activity at human alpha3beta2 nAChR expressed in Xenopus laevis oocytes assessed as inhibition of ACh-induced current amplitude at -80 mV holding potential in presence of BAPTA-AM at 10 uM by two-electrode voltage clamp method. The class given is cell-based. The note with it: Oocyte, filed as antagonist.

The species entered for another data set is Rattus norvegicus. The experiment in a line: Analgesic activity in chronic constriction injury-induced mechanical pain rat model assessed as increase in paw withdrawal latency measured after 24 hrs. Type of data set: functional, organism-based. The note with it: DDE = dose-dependent effect.
Data set [17] addresses T3, Neuronal acetylcholine receptor subunit alpha-7. The experiment in a line: Antagonist activity at human alpha7 nAChR expressed in Xenopus laevis oocytes assessed as inhibition of ACh-induced current amplitude at -80 mV holding potential by two-electrode voltage clamp method. Type of data set: cell-based, Oocyte.
In data set [18] the test system is Mus musculus. Description: Analgesic activity in chronic constriction injury-induced mechanical pain mouse model assessed as increase in paw withdrawal latency at 0.5 ug/kg measured after 12 hrs. Type of data set: functional, organism-based. The note with it: dose 5.0 µg/kg.
Data set [19] addresses T2, Neuronal acetylcholine receptor; alpha3/beta2. The experiment in a line: Antagonist activity at human alpha3beta2 nAChR expressed in Xenopus laevis oocytes assessed as inhibition of ACh-induced current amplitude at -80 mV holding potential at 100 nM by two-electrode voltage clamp method. The class given is cell-based. The note with it: Oocyte, filed as antagonist.
Data set [20] relates to Mus musculus. The experiment in a line: Analgesic activity in chronic constriction injury-induced mechanical pain mouse model assessed as increase in paw withdrawal latency at 2.5 ug/kg measured after 12 hrs. The class given is functional, organism-based. The note with it: dose 2.5 µg/kg.
Data set [21] deals with T3, Neuronal acetylcholine receptor subunit alpha-7. Description: Antagonist activity at human alpha7 nAChR expressed in Xenopus laevis oocytes assessed as inhibition of ACh-induced current amplitude at -80 mV holding potential in presence of BAPTA-AM by two-electrode voltage clamp method. The class given is cell-based, Oocyte.
The target of data set [22] is T1, Neuronal acetylcholine receptor; alpha4/beta2 (Homo sapiens). Description: Antagonist activity at human alpha4beta2 nAChR expressed in Xenopus laevis oocytes assessed as inhibition of ACh-induced current amplitude at -80 mV holding potential in presence of BAPTA-AM at 100 nM by two-electrode voltage clamp method. Type of data set: cell-based. The note with it: Oocyte.

Data set [23] deals with T5, Neuronal acetylcholine receptor; alpha9/alpha10 (Homo sapiens). Description: Antagonist activity at human alpha9alpha10 nAChR expressed in Xenopus laevis oocytes assessed as inhibition of ACh-induced current amplitude at -80 mV holding potential at 100 nM by two-electrode voltage clamp method. Type of data set: cell-based. The settings on record: Oocyte, filed as antagonist.

The target in data set [24] is T4, Neuronal acetylcholine receptor; alpha3/beta4 (Homo sapiens). Description: Antagonist activity at human alpha3beta4 nAChR expressed in Xenopus laevis oocytes assessed as inhibition of ACh-induced current amplitude at -80 mV holding potential at 100 nM by two-electrode voltage clamp method. Type of data set: cell-based. The note with it: Oocyte.
In data set [25] the test system is Mus musculus. Description: Analgesic activity in chronic constriction injury-induced mechanical pain mouse model assessed as increase in paw withdrawal latency at 25 ug/kg measured after 24 hrs. Type of data set: functional, organism-based. The settings on record: dose 25.0 µg/kg.
Data set [26] is described as follows: Toxicity in mouse assessed as abnormal motor behavior. The note with it: in vivo.
The target of data set [27] is T3, Neuronal acetylcholine receptor subunit alpha-7. The experiment in a line: Antagonist activity at human alpha7 nAChR expressed in Xenopus laevis oocytes assessed as inhibition of ACh-induced current amplitude at -80 mV holding potential at 100 nM by two-electrode voltage clamp method. Type of data set: cell-based. The note with it: Oocyte, filed as antagonist.

Molecules are shown by their SMILES. Activity calls are given as the source filed them. The calls are words filed in the database; no cut-off is given here. Positions of bridges follow the written chain, without caps; N, C: chain ends. Non-standard residues stand in square brackets, D forms with d. Residues, ends and D or L forms follow the SMILES beside them. ξ: configuration not given here. ξDap = NCC(N)C(=O)O Bounds are passed on as bounds.

Chain of Neuronal acetylcholine receptor subunit alpha-7 (Rattus norvegicus) (Q05941 whole entry): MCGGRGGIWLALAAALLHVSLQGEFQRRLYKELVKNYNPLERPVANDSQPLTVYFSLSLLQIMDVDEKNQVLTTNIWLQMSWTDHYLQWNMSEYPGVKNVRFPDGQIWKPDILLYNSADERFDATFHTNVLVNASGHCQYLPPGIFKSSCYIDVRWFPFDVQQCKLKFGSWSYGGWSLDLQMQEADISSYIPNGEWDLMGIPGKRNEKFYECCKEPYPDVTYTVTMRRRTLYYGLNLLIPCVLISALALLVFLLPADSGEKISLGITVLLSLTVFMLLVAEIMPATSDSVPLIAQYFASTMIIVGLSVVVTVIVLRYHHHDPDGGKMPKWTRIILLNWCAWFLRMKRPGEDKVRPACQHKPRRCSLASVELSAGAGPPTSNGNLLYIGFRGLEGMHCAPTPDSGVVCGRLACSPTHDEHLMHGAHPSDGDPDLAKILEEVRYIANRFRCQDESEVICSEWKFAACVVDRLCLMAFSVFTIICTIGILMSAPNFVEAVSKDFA

Usually inhibition stands for the drop in the measured response relative to a control, in per cent. Usually IC50 stands for the midpoint of a concentration-inhibition curve. For the compound `CC[C@H](C)[C@@H]1NC(=O)[C@H](CC(=O)O)NC(=O)[C@@H]2CCCN2C(=O)[C@H](CC(N)=O)NC(=O)[C@H](CC(N)=O)NC(=O)[C@H](C(C)C)NC(=O)[C@H](CO)NC(=O)[C@@H]2CSSC[C@H](NC(=O)CN)C(=O)N[C@@H](CSSC[C@@H](C(N)=O)NC1=O)C(=O)N[C@@H](CO)C(=O)N[C@@H](Cc1cnc[nH]1)C(=O)N1CCC[C@H]1C(=O)N[C@@H](C)C(=O)N2` (H-GCCSHPACSVNNPDIC-NH2; disulfide 2-8, 3-16), the inhibition entry in data set [1] was “Active”. Moreover, the inhibition was more than 90% in data set [2]; 65% in data set [3]; 40% in data set [4]; 80% in [5]; 100% in the data set with Oocyte; 50% in data set [8]. Moreover, the inhibition in data set [9] was 25%; in [10] it was more than 90%; in [11], 95%; in data set [12], more than 90%; in [13], 90%; in data set [14], 60%. The inhibition in data set [16] was 50%. In addition, the IC50 was found to be 219 nM in data set [6], 8.3 nM in data set [7] and 92 nM in data set [15].

`CC[C@H](C)[C@@H]1NC(=O)[C@H](CC(=O)O)NC(=O)[C@@H]2CCCN2C(=O)[C@H](CC(N)=O)NC(=O)[C@H](CC(N)=O)NC(=O)[C@H](C(C)C)NC(=O)[C@H](CO)NC(=O)[C@@H]2CSSC[C@H](NC(=O)CN)C(=O)N[C@@H](CSSC[C@@H](C(N)=O)NC1=O)C(=O)NC(CN)C(=O)N[C@@H](Cc1cnc[nH]1)C(=O)N1CCC[C@H]1C(=O)N[C@@H](C)C(=O)N2` (stereo partly drawn) (H-GCC[ξDap]HPACSVNNPDIC-NH2; disulfide 2-8, 3-16): the IC50 in data set [6] amounted to 20.6 nM; in data set [7], 1.7 nM; in data set [17] it was 259 nM; in [21], 265 nM; in data set [15] it was 4 nM. In addition, the results for the Activity result (in the data set listed under Rattus norvegicus; in [26]) were “Dde” and “Non-Toxic”, respectively. Further, the outcome with Mus musculus [18], with Mus musculus [20] and with Mus musculus [25] was Active. Besides, the inhibition in data set [19] is 85%; in [22], 5%; in data set [23], more than 85%; in [24], 5%; in [13] (filed as antagonist) it was more than 95%; in data set [27], 90%.

For the origin of these results see ChEMBL document CHEMBL5150017, “Mechanism of Action and Structure-Activity Relationship of α-Conotoxin Mr1.1 at the Human α9α10 Nicotinic Acetylcholine Receptor” (J Med Chem, 2022).
